Results: paper PMC7470090, “Identification of probe-quality degraders for Poly(ADP-ribose) polymerase-1 (PARP-1)” (Journal of Enzyme Inhibition and Medicinal Chemistry, 2020)

Each compound was assayed against T1, PARP-1 (Homo sapiens, UniProt P09874) (assay: cell-free PARP-1 inhibition assay, dose-response).
T1 construct: gene PARP1
Type: biochemical

T1 sequence (P09874 2-1014): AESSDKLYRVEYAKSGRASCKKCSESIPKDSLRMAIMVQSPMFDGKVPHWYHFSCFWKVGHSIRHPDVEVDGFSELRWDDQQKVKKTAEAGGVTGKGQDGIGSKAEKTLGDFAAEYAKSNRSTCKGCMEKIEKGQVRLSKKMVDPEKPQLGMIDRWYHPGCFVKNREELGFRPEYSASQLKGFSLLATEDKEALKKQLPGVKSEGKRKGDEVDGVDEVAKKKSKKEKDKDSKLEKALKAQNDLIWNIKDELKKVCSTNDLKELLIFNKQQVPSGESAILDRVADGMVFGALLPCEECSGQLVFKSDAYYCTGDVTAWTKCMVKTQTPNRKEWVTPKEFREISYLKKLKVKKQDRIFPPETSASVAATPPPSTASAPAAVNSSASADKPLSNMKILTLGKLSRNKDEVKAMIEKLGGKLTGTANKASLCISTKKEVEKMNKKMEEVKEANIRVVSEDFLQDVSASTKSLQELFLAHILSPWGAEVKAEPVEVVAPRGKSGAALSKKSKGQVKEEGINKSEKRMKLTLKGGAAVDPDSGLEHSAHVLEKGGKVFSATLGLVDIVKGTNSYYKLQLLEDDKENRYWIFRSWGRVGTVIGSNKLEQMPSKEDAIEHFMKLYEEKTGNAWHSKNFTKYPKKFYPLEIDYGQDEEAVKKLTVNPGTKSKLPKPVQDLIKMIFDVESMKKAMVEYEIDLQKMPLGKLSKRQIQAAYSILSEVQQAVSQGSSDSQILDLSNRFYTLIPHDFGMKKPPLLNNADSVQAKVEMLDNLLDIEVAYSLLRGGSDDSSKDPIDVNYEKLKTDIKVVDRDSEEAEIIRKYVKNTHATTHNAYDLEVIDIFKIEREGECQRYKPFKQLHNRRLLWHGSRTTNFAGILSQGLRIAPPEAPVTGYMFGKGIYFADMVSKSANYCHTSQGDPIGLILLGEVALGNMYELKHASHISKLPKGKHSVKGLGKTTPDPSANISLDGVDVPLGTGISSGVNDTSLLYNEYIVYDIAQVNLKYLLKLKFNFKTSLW

SMILES	IC50
O=C1CCC(N2Cc3c(NC(=O)CCCCCCCCCCCNC(=O)c4cc(Cc5n[nH]c(=O)c6ccccc56)ccc4F)cccc3C2=O)C(=O)N1 (stereo not drawn) [compound 3, N-(12-((2–(2,6-dioxopiperidin-3-yl)-1-oxoisoindolin-4-yl)amino)-12-oxododecyl)-2-fluoro-5-((4-oxo-3,4-dihydrophthalazin-1-yl)methyl)benzamide]	20.7 nM
O=C1CCC(N2Cc3c(NC(=O)CCCCCCCCCCNC(=O)c4cc(Cc5n[nH]c(=O)c6ccccc56)ccc4F)cccc3C2=O)C(=O)N1 (stereo not drawn) [compound 2, N-(11-((2–(2,6-dioxopiperidin-3-yl)-1-oxoisoindolin-4-yl)amino)-11-oxoundecyl)-2-fluoro-5-((4-oxo-3,4-dihydrophthalazin-1-yl)methyl)benzamide]	54.7 nM
O=C1CCC(N2Cc3c(NC(=O)CCCCCCCNC(=O)c4cc(Cc5n[nH]c(=O)c6ccccc56)ccc4F)cccc3C2=O)C(=O)N1 (stereo not drawn) [compound 1, N-(8-((2–(2,6-dioxopiperidin-3-yl)-1-oxoisoindolin-4-yl)amino)-8-oxooctyl)-2-fluoro-5-((4-oxo-3,4-dihydrophthalazin-1-yl)methyl)benzamide]	71.3 nM
